Tested on: 454973-116-R2-J3-PDC complex spheroid viability
Experiment: Anticancer human tumor 454973-116-R2-J3-PDC patient-derived pancreatic carcinoma cell line growth inhibition [POLQ]
Settings: for IC50: curve of first compound; for viability, T/C: stronger effect = lower value; active means viability on the fitted dose curve at most 10% of control; inactive means the rest
In short: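 Complex spheroid viability model combining PDC tumour cells with endothelial (HUVEC) and MSC stromal cells. Novobiocin, ART-558 or RP6685 were tested singly and in combination with standard and investigational anticancer drugs. Each was titrated in half-log steps from near clinical Cmax, or from 10 microM where Cmax was unknown.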
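Further: spheroids exposed to drugs for seven days before measurement.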
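Wherever viability, T/C is given: percent viability relative to DMSO vehicle control wells taken as 100%.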

Cn1ncnc1[C@H]1c2n[nH]c(=O)c3cc(F)cc(c23)N[C@@H]1c1ccc(F)cc1 + Nc1ccc(C#CCN(C(=O)Cc2ncc(C(F)(F)F)cc2C(F)(F)F)c2ccc(F)cc2)nn1
> 0.1 µM: IC50 (second compound 0.0316 µM) | IC50 (second compound 0.1 µM) | IC50 (second compound 0.316 µM) | IC50 (second compound 1 µM) | IC50 (second compound 3.16 µM) | IC50 (second compound 10 µM)
inactive: viability, T/C (second compound 0.0316 µM, first compound 0.000316 µM) 107% | viability, T/C (second compound 0.0316 µM, first compound 0.001 µM) 93.9% | viability, T/C (second compound 0.0316 µM, first compound 0.00316 µM) 98% | viability, T/C (second compound 0.0316 µM, first compound 0.01 µM) 90.9% | viability, T/C (second compound 0.0316 µM, first compound 0.0316 µM) 93.6% | viability, T/C (second compound 0.0316 µM, first compound 0.1 µM) 82.3% | viability, T/C (second compound 0.1 µM, first compound 0.000316 µM) 108% | viability, T/C (second compound 0.1 µM, first compound 0.001 µM) 104% | viability, T/C (second compound 0.1 µM, first compound 0.00316 µM) 96.7% | viability, T/C (second compound 0.1 µM, first compound 0.01 µM) 98.9% | viability, T/C (second compound 0.1 µM, first compound 0.0316 µM) 97.2% | viability, T/C (second compound 0.1 µM, first compound 0.1 µM) 79.9% | viability, T/C (second compound 0.316 µM, first compound 0.000316 µM) 105% | viability, T/C (second compound 0.316 µM, first compound 0.001 µM) 102% | viability, T/C (second compound 0.316 µM, first compound 0.00316 µM) 102% | viability, T/C (second compound 0.316 µM, first compound 0.01 µM) 92.3% | viability, T/C (second compound 0.316 µM, first compound 0.0316 µM) 101% | viability, T/C (second compound 0.316 µM, first compound 0.1 µM) 89.2% | viability, T/C (second compound 1 µM, first compound 0.000316 µM) 109% | viability, T/C (second compound 1 µM, first compound 0.001 µM) 105% | viability, T/C (second compound 1 µM, first compound 0.00316 µM) 108% | viability, T/C (second compound 1 µM, first compound 0.01 µM) 105% | viability, T/C (second compound 1 µM, first compound 0.0316 µM) 91.6% | viability, T/C (second compound 1 µM, first compound 0.1 µM) 82.9% | viability, T/C (second compound 3.16 µM, first compound 0.000316 µM) 111% | viability, T/C (second compound 3.16 µM, first compound 0.001 µM) 116% | viability, T/C (second compound 3.16 µM, first compound 0.00316 µM) 102% | viability, T/C (second compound 3.16 µM, first compound 0.01 µM) 100% | viability, T/C (second compound 3.16 µM, first compound 0.0316 µM) 96.3% | viability, T/C (second compound 3.16 µM, first compound 0.1 µM) 84.7% | viability, T/C (second compound 10 µM, first compound 0.000316 µM) 112% | viability, T/C (second compound 10 µM, first compound 0.001 µM) 109% | viability, T/C (second compound 10 µM, first compound 0.00316 µM) 117% | viability, T/C (second compound 10 µM, first compound 0.01 µM) 107% | viability, T/C (second compound 10 µM, first compound 0.0316 µM) 113% | viability, T/C (second compound 10 µM, first compound 0.1 µM) 95.8%
